Reference: patent US11584744B2 (UNIVERSITY OF WASHINGTON, priority 2017, dated 2023)
Values after ≈ are worked out from the molar mass of the structure shown. Like-named read-outs stand apart in the source and are kept apart here.

Legend:
[1] = tested on: S. aureus MSSA (ATCC 29213); test: MIC susceptibility testing; format: cell-based, Staphylococcus aureus; settings: S. aureus ATCC 29213; for MIC: Staphylococcus aureus, read-out: (F) S. aureus (ATCC 29213) MIC
Source text: Media and culture conditions. Mueller Hinton broth (MHB), cation adjusted Mueller Hinton broth (CA-MHB), and Brain Heart Infusion broth (BHI) were purchased from Becton Dickinson (Franklin Lakes, N.J.). Tryptic soy agar (TSA) plates, TSA with 5% sheep blood plates, and CA-MHB with 3% laked horse blood were purchased from Remel (San Diego, Calif.). MHB was used to assay all Staphylococcus aureus strains. CA-MHB was used for Staphylococcus epidermidis, Enterococcus faecalis, Enterococcus faecium, Escherichia coli, and Pseudomonas aeruginosa. CA-MHB supplemented with 3% laked horse blood was used for Streptococcus pneumoniae and Streptococcus pyogenes. Staphylococcus, Enterococcus, Escherichia, and Pseudomonas strains were cultured at 37° C. with ambient air. Streptococcus strains were cultured in 37° C. with 5% CO2. Separate conditions for radiolabeled precursor uptake assays are described below.
Susceptibility testing: Minimum inhibitory concentration (MIC) determinations were performed in triplicate in 96-well round bottom microtiter plates (Corning, Corning N.Y.) as described by the Clinical and Laboratory Standards Institute (CLSI). Serial two-fold dilutions of compounds were added to plates in 50 μL volumes. An additional 50 μL of media containing bacterial cells (1×10^6 CFUs/mL) was then added to each well. Maximum DMSO concentrations were 0.5%. Plates were incubated at 37° C. for at least 18 h before reading the susceptibility result by optical absorbance (OD600) using a BioTek ELx800. The lowest concentration causing ≥90% growth inhibition compared to the untreated control was recorded as the MIC (and also corresponded to the visual MIC). MICs were measured at least twice and the higher value (if different) was recorded herein.

MetRS (T. brucei) = target: T1, MetRS (T. brucei) (Trypanosoma brucei brucei, UniProt Q38C91); test: MetRS (T. brucei) enzyme inhibition; format: biochemical
T1 sequence (Q38C91 1-773): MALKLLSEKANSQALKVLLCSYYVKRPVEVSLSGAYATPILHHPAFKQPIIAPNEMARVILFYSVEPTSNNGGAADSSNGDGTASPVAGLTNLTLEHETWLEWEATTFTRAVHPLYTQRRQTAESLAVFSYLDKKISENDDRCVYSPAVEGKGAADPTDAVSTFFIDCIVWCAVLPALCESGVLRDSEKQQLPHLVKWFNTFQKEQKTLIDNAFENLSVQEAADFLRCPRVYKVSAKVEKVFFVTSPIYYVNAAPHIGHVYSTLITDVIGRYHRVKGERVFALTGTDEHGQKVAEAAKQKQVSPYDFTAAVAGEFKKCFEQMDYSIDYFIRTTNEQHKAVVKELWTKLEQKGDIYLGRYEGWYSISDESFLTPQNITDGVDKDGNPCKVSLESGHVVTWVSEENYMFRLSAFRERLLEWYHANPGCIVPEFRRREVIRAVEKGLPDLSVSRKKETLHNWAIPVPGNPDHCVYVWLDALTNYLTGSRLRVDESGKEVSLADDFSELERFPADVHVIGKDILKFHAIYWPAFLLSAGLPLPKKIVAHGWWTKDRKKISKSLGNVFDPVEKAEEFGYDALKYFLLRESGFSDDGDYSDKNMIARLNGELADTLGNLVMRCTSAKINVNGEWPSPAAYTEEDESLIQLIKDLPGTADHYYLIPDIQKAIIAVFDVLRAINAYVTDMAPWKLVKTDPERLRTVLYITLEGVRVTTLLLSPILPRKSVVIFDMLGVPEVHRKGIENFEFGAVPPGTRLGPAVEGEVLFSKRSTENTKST

MetRS (C. parvum) = MetRS (C. parvum) (Cryptosporidium parvum, UniProt Q5CVN0); test: MetRS (C. parvum) enzyme inhibition; format: biochemical; settings: read-out: (C) MetRS (C. parvum) IC50
T. brucei = T. brucei growth inhibition; format: cell-based, Trypanosoma brucei; settings: read-out: (D) T. brucei EC50
T. cruzi = T. cruzi growth inhibition; format: cell-based, Trypanosoma cruzi; settings: read-out: (E) T. cruzi EC50
C. parvum = C. parvum growth inhibition; format: cell-based, Cryptosporidium parvum; settings: read-out: (J) C. parvum EC50

Sequence of MetRS (C. parvum) (Q5CVN0 entry or part of it): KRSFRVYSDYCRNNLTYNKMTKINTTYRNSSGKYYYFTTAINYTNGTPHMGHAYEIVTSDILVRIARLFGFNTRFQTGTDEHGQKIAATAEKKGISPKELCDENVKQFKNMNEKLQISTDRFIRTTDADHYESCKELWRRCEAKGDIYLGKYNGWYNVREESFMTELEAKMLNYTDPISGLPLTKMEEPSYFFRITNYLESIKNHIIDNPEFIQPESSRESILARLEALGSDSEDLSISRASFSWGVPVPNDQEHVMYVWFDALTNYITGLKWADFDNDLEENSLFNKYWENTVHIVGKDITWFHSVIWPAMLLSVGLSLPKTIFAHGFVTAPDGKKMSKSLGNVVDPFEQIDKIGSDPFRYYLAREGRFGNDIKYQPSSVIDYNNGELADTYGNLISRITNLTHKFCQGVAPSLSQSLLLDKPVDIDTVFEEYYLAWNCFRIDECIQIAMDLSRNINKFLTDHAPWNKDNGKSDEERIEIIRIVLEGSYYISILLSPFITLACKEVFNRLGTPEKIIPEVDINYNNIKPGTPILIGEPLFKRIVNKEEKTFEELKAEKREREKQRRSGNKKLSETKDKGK

| SMILES | (F) S. aureus (ATCC 29213) MIC [1] [mg/L] | MIC [1] [mg/L] | IC50 (MetRS (T. brucei)) [µM] | IC50 (MetRS (C. parvum)) [µM] | EC50 (T. brucei; Trypanosoma brucei) [µM] | EC50 (T. cruzi; Trypanosoma cruzi) [µM] | EC50 (C. parvum; Cryptosporidium parvum) [µM] | EC50 (T. brucei) [µM] | EC50 (C. parvum) [µM] | EC50 (T. cruzi) [µM] |
| --- | --- | --- | --- | --- | --- | --- | --- | --- | --- | --- |
| O=c1[nH]c(C(O)c2ccc(Cl)cc2Cl)cn1Cc1nc2nc(Cl)ccc2[nH]1 (stereo not drawn) [Compound 2202, 1-({5-chloro-1H-imidazo[4,5-b]pyridin-2-yl}methyl)-4-[(2,4-dichlorophenyl)(hydroxy)methyl]-2,3-dihydro-1H-imidazol-2-one] | 13.2 | > 10 | 0.055 | 0.213 | 0.0453 | 2.71 |  |  |  |  |
| COc1ccc(-c2cnc(NC(C)=O)c3nc(Cc4nc5nc(Cl)ccc5[nH]4)cn23)c(Cl)c1 [Compound 2186, N-[2-({5-chloro-1H-imidazo[4,5-b]pyridin-2-yl}methyl)-5-(2-chloro-4-methoxyphenyl)imidazo[1,2-a]pyrazin-8-yl]acetamide] | 3.21 | 3.8 (≈ 7.88 µM) | 0.059 | 0.0492 | 0.025 | 0.36 |  |  |  |  |
| COC(=O)c1c(Cl)ccc2[nH]c(Cc3cn4c(-c5ccc(OC)cc5Cl)cccc4n3)nc12 [Compound 2236, methyl 5-chlor0-2-{[5-(2-chloro-4-methoxyphenyl)imidazo[1,2-a]pyridin-2-yl]methyl}-1H-1,3-benzodiazole-4-carboxylate] |  |  |  | 0.335 | 1.66 |  | > 2 |  |  |  |
| Clc1ccc2[nH]c(Cc3cn4c(-c5cc(OCCOC6CCCCO6)c(Cl)cc5Cl)cccc4n3)nc2n1 (stereo not drawn) [Compound 2271, 2-({5-chloro-1H-imidazo[4,5-b]pyridin-2-yl}methyl)-5-{2,4-dichloro-5-[2-(oxan-2-yloxy)ethoxy]phenyl}-imidazo[1,2-a]pyridine] |  |  |  |  | 0.0539 | 0.494 | > 2 |  |  |  |
| CCn1cc(-c2ccc(OC)cc2Cl)c2c1CCN(Cc1nc3nc(Cl)ccc3[nH]1)C2 [Compound 2177, 5-chlor0-2-((3-(2-chloro-4-methoxyphenyl)-1-ethyl-6,7-dihydro-1H-pyrrolo[3,2-c]pyridin-5(4H)-yl)methyl)-1H-imidazo[4,5-b]pyridine] |  |  | < 0.04 | < 0.04 | 0.0925 | 0.409 |  |  |  |  |
| CCn1c(Cc2ccc(Cl)cc2Cl)cn(Cc2nc3c(ccc(Cl)[n+]3[O-])[nH]2)c1=O [Compound 2235, 1-({5-chloro-4-oxo-1H-4λ^5-imidazo[4,5-b]pyridin-2-yl}methyl)-4-[(2,4-dichlorophenyl)methyl]-3-ethyl-2,3-dihydro-1H-imidazol-2-one] |  |  |  | > 1 | 1.05 |  | > 2 |  |  |  |
| OCCOc1cc(-c2cccc3nc(Cc4nc5nc(Cl)ccc5[nH]4)cn23)c(Cl)cc1Cl [Compound 2270, 2-{2,4-dichloro-5-[2-({5-chloro-1H-imidazo[4,5-b]pyridin-2-yl}methyl)imidazo[1,2-a]pyridin-5-yl]phenoxy}ethan-1-ol] |  |  |  |  | 0.0433 | 0.706 | > 2 |  |  |  |
| COc1ccc(Cc2cn(Cc3nc4c(F)c(F)ccc4[nH]3)c(=O)n2CC(F)F)c(Cl)c1 [Compound 2261, 4-[(2-chloro-4-methoxyphenyl)methyl]-1-[(6,7-difluoro-1H-1,3-benzodiazol-2-yl)methyl]-3-(2,2-difluoroethyl)-2,3-dihydro-1H-imidazol-2-one] |  |  |  |  |  | 0.214 | 0.34 |  | 0.561 |  |
| COc1ccc(-c2cccn3c(=S)n(Cc4nc5nc(Cl)ccc5[nH]4)cc23)c(Cl)c1 [Compound 2243, 2-({5-chloro-1H-imidazo[4,5-b]pyridin-2-yl}methyl)-8-(2-chloro-4-methoxyphenyl)-2H,3H-imidazo[1,5-a]pyridine-3-thione] |  |  |  |  |  | 0.0969 | 0.753 |  | 1.44 | 0.172 |
| COC(=O)c1c(Cl)ccc2[nH]c(Cn3cc(Cc4ccc(OC)cc4Cl)n(CC(C)(C)O)c3=O)nc12 [Compound 2237, methyl 5-chlor0-2-({4-[(2-chloro-4-methoxyphenyl)methyl]-3-(2-hydroxy-2-methylpropyl)-2-oxo-2,3-dihydro-1H-imidazol-1-yl}methyl)-1H-1,3-benzodiazole-4-carboxylate] |  |  |  | > 1 | 0.546 |  | > 2 |  |  |  |
| CC(=O)N1CCC(Cn2c(Cc3ccc(Cl)cc3Cl)cn(Cc3nc4nc(F)ccc4[nH]3)c2=O)C(F)(F)C1 (stereo not drawn) [Compound 2265, 3-[(1-acetyl-3,3-difluoropiperidin-4-yl)methyl]-4-[(2,4-dichlorophenyl)methyl]-1-({5-fluoro-1H-imidazo[4,5-b]pyridin-2-yl}methyl)-2,3-dihydro-1H-imidazol-2-one] |  | 1.62 (≈ 2.86 µM) |  |  |  | 0.325 | 1.84 |  |  |  |
| COc1ccc(Cc2cn(Cc3nc4ncc(Cl)c(C)c4[nH]3)c(=O)n2CC(C)(C)O)c(Cl)c1 [Compound 2238, 4-[(2-chloro-4-methoxyphenyl)methyl]-1-({6-chloro-7-methyl-1H-imidazo[4,5-b]pyridin-2-yl}methyl)-3-(2-hydroxy-2-methylpropyl)-2,3-dihydro-1H-imidazol-2-one] |  |  |  | 0.127 | 0.174 |  | > 2 |  |  |  |

Second part, the compound after the results:

| (F) S. aureus (ATCC 29213) MIC [1] [mg/L] | MIC [1] [mg/L] | IC50 (MetRS (T. brucei)) [µM] | IC50 (MetRS (C. parvum)) [µM] | EC50 (T. brucei; Trypanosoma brucei) [µM] | EC50 (T. cruzi; Trypanosoma cruzi) [µM] | EC50 (C. parvum; Cryptosporidium parvum) [µM] | EC50 (T. brucei) [µM] | EC50 (C. parvum) [µM] | EC50 (T. cruzi) [µM] | SMILES |
| --- | --- | --- | --- | --- | --- | --- | --- | --- | --- | --- |
|  | 1.33 (≈ 2.89 µM) | < 0.04 | < 0.04 |  | 0.438 |  |  |  |  | O=c1n(Cc2nc3ccc(F)nc3[nH]2)cc(Cc2ccc(Cl)cc2Cl)n1C1CCCC1 [Compound 2081, 3-cyclopentyl-4-[(2,4-dichlorophenyl)methyl]-1-({5-fluoro-1H-imidazo[4,5-b]pyridin-2-yl}methyl)-2,3-dihydro-1H-imidazol-2-one] |
|  | 3.29 (≈ 6.95 µM) |  |  | 0.0644 | 0.366 | > 2 | 0.0691 |  |  | O=c1n(Cc2nc3c(F)c(F)ccc3[nH]2)cc(Cc2ccc(Cl)cc2Cl)n1CC(F)F [Compound 2263, 4-[(2,4-dichlorophenyl)methyl]-1-[(6,7-difluoro-1H-1,3-benzodiazol-2-yl)methyl]-3-(2,2-difluoroethyl)-2,3-dihydro-1H-imidazol-2-one] |
|  | 2.04 (≈ 4.55 µM) | < 0.04 | < 0.04 |  | 0.608 |  |  |  |  | CC(C)(C)n1c(Cc2ccc(Cl)cc2Cl)cn(Cc2nc3ccc(F)nc3[nH]2)c1=O [Compound 2084, 3-tert-butyl-4-[(2,4-dichlorophenyl)methyl]-1-({5-fluoro-1H-imidazo[4,5-b]pyridin-2-yl}methyl)-2,3-dihydro-1H-imidazol-2-one] |
|  | > 2.5 | < 0.04 | 0.0475 |  | 0.502 |  |  |  |  | CCn1c(Cc2ccc(Cl)cc2Cl)cn(Cc2nc3ccc(C)nc3[nH]2)c1=O [Compound 2092, 4-[(2,4-dichlorophenyl)methyl]-3-ethyl-1-({5-methyl-1H-imidazo[4,5-b]pyridin-2-yl}methyl)-2,3-dihydro-1H-imidazol-2-one] |
|  |  | < 0.04 | 0.195 | 0.242 | 3.72 |  |  |  |  | Fc1ccc2nc(Cn3cc(Cc4ccc(Cl)cc4Cl)[nH]c3=S)[nH]c2n1 [Compound 2056, 5-(2,4-dichlorobenzyl)-3-((5-fluoro-3H-imidazo[4,5-b]pyridin-2-yl)methyl)-1H-imidazole-2(3H)-thione] |
|  |  | < 0.04 | 0.0401 | 0.718 | > 5 |  |  |  |  | O=C(O)Cn1c(C(O)c2ccc(Cl)cc2Cl)cn(Cc2nc3ccc(Cl)nc3[nH]2)c1=O (stereo not drawn) [Compound 2218, 2-(3-((5-chloro-3H-imidazo[4,5-b]pyridin-2-yl)methyl)-5((2,4-dichlorophenyl)(hydroxy)methyl)-2-oxo-2,3-dihydro-1H-imidazol-1-yl)acetic acid] |
